# Columns and labels:
# [1] = tested on: cardiomyocytes; experiment: Cardiomyocyte proliferation effect assay (Edu / cTnI immunofluorescence of heart tissue), adult female SD rats; type: in vivo; conditions: tail vein injection 7 consecutive days, IGF1-24 100 μg/kg or molar equivalents, FIG. 1-2
# Method: (§1) In certain embodiments, adult female SD rats were divided into five groups: PBS group, IGF1 group, IGF1Ec group, IGF1-24 group, and IGF1+IGF1Ec24 peptide group, with three rats in each group. The rats in each group were distinguished by ear clipping for subsequent protein injection according to the different body weights of the rats.
# (§2) The rats in each group were injected with PBS, IGF1, IGF1Ec24 peptide, IGF1Ec and IGF1-24 for 7 consecutive days. Recombinant protein IGF1-24 was injected at 100 μg/kg, and the injection of the remaining proteins in each group was converted according to the molar amount of IGF1-24 injection as follows: 90 μg/kg for IGF1, 8.9 μg/kg for IGF1Ec24 peptide, 104 μg/kg for IGF1Ec.
# Before protein injection, the rats were first weighed with a bench scale, and their body weight and the amount of protein injected were recorded and converted; then the rats were fixed with a rat fixator and their tails were exposed, and their tails were soaked in hot water for 1-2 min to stretch the tail vessels and facilitate the search for blood vessels; then the tails were wiped with alcohol cotton balls; after the tail vein was identified, the needle was inserted into the vessel at a 45° angle to the tail vein and the drug was slowly pushed in; the needle before pressing the wound with cotton to stop the bleeding, and then pull out the needle. […]
# [2] = tested on: neuronal cells; experiment: Neuroproliferation effect (Edu / DCX immunofluorescence, hippocampal dentate gyrus), adult female SD rats; type: in vivo; conditions: FIG. 4
# Method: as §1, §2
# After seven days of protein injection, the intraperitoneal injection of Edu solution at a concentration of 2.5 mg/kg was performed for seven days, so that the final total dose of each rat reached 50 mg/kg. […]
# The microscope was selected with a 20× lens to observe the fluorescence staining of the dentate gyrus in the whole hippocampal region; the number of immature neurons and the number of newly proliferating neuronal cells in the dentate gyrus of the hippocampus were recorded.
substance,measurement,setting,value
"IGF1-24: 97 amino acids: amino-terminal 70 identical to IGF1, carboxyl-terminal 24 identical to IGFEc24 peptide, joined by three Gly linkers (SEQ ID NO: 4)",number of Edu-positive cardiomyocytes,[1],2.6%
same,proliferation of neuronal cells,[2],10%

# — patent US20230073755A1, “USE OF IGF1 IN COMBINATION WITH IGFEC24 IN PREPARATION OF MEDICINE FOR PROMOTING TISSUE REPAIR AND REGENERATION” (Chongqing University, priority 2020, published 2023)
